Values of other authors, collected in US9211338B2, “Composition and method for treating HPV” (Universite Libre de Bruxelles, priority 2011, dated 2015).
Like-named read-outs stand apart in the source and are kept apart here.

What was measured:
HPV-positive cells = conditions: in vitro

Structure (SMILES): Nc1ccn(C[C@@H](CO)OCP(=O)(O)O)c(=O)n1 [cidofovir]
- clinical outcome (HPV; intravenous (systemic), disseminated papillomatosis): stabilization of disseminated papillomatosis
- clinical outcome (HPV; local intratumor injections, patients with papillomatous lesions): complete regression of the tumor
- inhibition of cell proliferation (HPV-positive cells): concentration- and time-dependent inhibition of cell proliferation
